Entries after “also recorded” stand apart in the source; their conditions may differ.
Tests used:
Solubility by HPLC = assay type: physicochemical; conditions: thermodynamic from solid, room temperature
Description: Solubility by HPLC: Solubility of Form A in selected aqueous and organic solvents was determined by mixing solid with solvents at room temperature. The samples were filtered after 24 hr of agitation and quantified by an HPLC method, except for DMSO, for which the solubility was measured after 1 hr of agitation.

[1] = Dynamic Vapor Sorption (moisture sorption); assay type: physicochemical
Description: Dynamic Vapor Sorption (DVS): Hygroscopicity was determined on a Surface Measurement Systems DVS. Typically, a sample of about 2-10 mg was loaded into the DVS instrument sample pan. The sample was analyzed on a DVS automated sorption analyzer at room temperature. The relative humidity was increased from 0 to 95% RH at 10% RH step, then at 95% RH. The relative humidity was then decreased in a similar manner to accomplish a full adsorption/desorption cycle.

[2] = Evaporation experiments, solid form by XRPD; assay type: physicochemical
Description: Equilibration/Slurry and Evaporation: Equilibration and evaporation experiments were carried out by adding an excess of Compound A hydrochloride to about 2 mL of a test solvent. The resulting mixture was agitated for at least 24 hrs at about 25° C. or about 50° C. Upon reaching equilibrium, the saturated solution was removed and allowed to evaporate slowly in an open vial under nitrogen at about 25° C. and about 50° C., respectively. The solids resulting from the equilibration were filtered and dried in the air.
(§1) X-ray Powder Diffraction (XRPD): XRPD analysis was conducted on a Thermo ARL X'TRA™ X-ray powder diffractometer using Cu Kα radiation at 1.54 Å. The instrument was equipped with a fine focus X-ray tube. The voltage and amperage of X-ray generator were set at 45 kV and 40 mA, respectively. The divergence slices were set at 4 mm and 2 mm and the measuring slices were set at 0.5 mm and 0.2 mm. Diffracted radiation was detected by a peltier-cooled Si(Li) solid-state detector. A theta-two theta continuous scan at 2.40°/min (0.5 sec/0.02° step) from 1.5°2θ to 40°2θ was used. A sintered alumina standard was used to check the peak position. In general, positions of XRPD peaks are expected to individually vary on a measurement-by-measurement basis by about +0.2°2θ. In general, as understood in the art, two XRPD patterns match one another if the characteristic peaks of the first pattern are located at approximately the same positions as the characteristic peaks of the second pattern. As understood in the art, determining whether two XRPD patterns match or whether individual peaks in two XRPD patterns match may require consideration of individual variables and parameters such as, but not limited to, preferred orientation, phase impurities, degree of crystallinity, particle size, variation in diffractometer instrument setup, variation in XRPD data collection parameters, and/or variation in XRPD data processing, among others. The determination of whether two patterns match may be performed by eye and/or by computer analysis.

[3] = Cooling recrystallization, solid form by XRPD; assay type: physicochemical; conditions: no antisolvent
Description: Cooling Recrystallization: The selected solvents (THF/water, MeCN/water, MeOH/0.1N HCl, and EtOH/0.1N HCl) were saturated with Compound A hydrochloride at about 50-70° C. Once the solids were completely dissolved, the solution was rapidly cooled by placing into a refrigerator (about 0-5° C.). Solids were isolated after 1 to 3 days.
as §1

[4] = Grinding studies, solid form by XRPD; assay type: physicochemical
Description: Grinding Studies: Grinding experiments were performed using a Wig-L-Bug shaker. About 50 mg of Compound A hydrochloride was added to a polystyrene tube (1″×½″) with a Plexi bead (⅜″). The vial was capped and placed on the shaker for about 50 s. For wet grinding, drops of water were added to the vial and a wet paste was formed prior to placing on the shaker.
as §1

[5] = Humidity studies, solid form by XRPD; assay type: physicochemical
Description: as §1, with “Humidity Studies: […] The vials were placed in 40° C./75% RH humidity chamber with one vial capped and one vial open. The solids were tested by XRPD after four weeks. […] X-ray Powder” for “X-ray Powder”

[6] = Stability upon compression; conditions: 2000-psi pressure for about 1 minute

SMILES: Cc1nc2cccc(N)c2c(=O)n1C1CCC(=O)NC1=O.Cl (stereo not drawn) [Form A1, 3-(5-amino-2-methyl-4-oxo-4H-quinazolin-3-yl)-piperidine-2,6-dione hydrochloride]
- solubility at 24 h (Solubility by HPLC; aqueous buffer, Acetate buffer (pH 4.0)): 0.31 mg/mL
- solubility at 24 h (Solubility by HPLC; aqueous buffer, Phosphate buffer (pH 6.8)): 0.03 mg/mL
- solubility at 24 h (Solubility by HPLC; organic solvent or mixture, Acetone): 2.55 mg/mL
- solubility at 24 h (Solubility by HPLC; organic solvent or mixture, Acetonitrile (AcCN)): 0.02 mg/mL
- solubility at 1 h (Solubility by HPLC; organic solvent or mixture, Dimethyl Sulfoxide (DMSO), 1 hr of agitation): 21.9 mg/mL
- solubility at 24 h (Solubility by HPLC; organic solvent or mixture, Ethyl acetate (EtOAc)): < 0.001 mg/mL
- solubility at 24 h (Solubility by HPLC; organic solvent or mixture, Heptane): < 0.001 mg/mL
- solubility at 24 h (Solubility by HPLC; organic solvent or mixture, Isopropanol (iPrOH)): 0.02 mg/mL
- solubility at 24 h (Solubility by HPLC; organic solvent or mixture, Methanol (MeOH)): 0.27 mg/mL
- solubility at 24 h (Solubility by HPLC; organic solvent or mixture, Tetrahydrofuran (THF)): < 0.005 mg/mL
- solubility at 24 h (Solubility by HPLC; organic solvent or mixture, Toluene): < 0.005 mg/mL
- solubility at 24 h (Solubility by HPLC; saline or isotonic, 0.9% NaCl): 1.9 mg/mL
- solubility at 24 h (Solubility by HPLC; simulated gastric fluid, 0.1N HCl): 5.34 mg/mL
- solubility at 24 h (Solubility by HPLC; Water): 1.71 mg/mL
- hygroscopicity ([1]; DVS 0 to 95% RH): non-hygroscopic
- XRPD after full adsorption/desorption cycle ([1]; after DVS cycle): unchanged
- mass change relative to the dry mass ([1]; relative humidity increased from 0 to 95%): 0.15%
- XRPD Result after evaporation ([2]; evaporation at 50° C., Acetonitrile/Water (1:1)): Form A1
- XRPD Result after evaporation ([2]; evaporation at 50° C., Ethanol/Water (1:1)): Form A1
- XRPD Result after evaporation ([2]; evaporation at 50° C., Methanol): Form A1
- XRPD Result after evaporation ([2]; evaporation at 50° C., Tetrahydrofuran/Water (1:1), hydrochloride): Amorphous
- XRPD Result after evaporation ([2]; evaporation at 50° C., Water): Form A1
- XRPD Result after evaporation ([2]; evaporation at room temperature, Acetonitrile/Water (1:1)): Form A1
- XRPD Result after evaporation ([2]; evaporation at room temperature, Ethanol/Water (1:1)): Form A1
- XRPD Result after evaporation ([2]; evaporation at room temperature, Methanol, hydrochloride): Partial or complete salt dissociation; also recorded: Form A + Form A1
- XRPD Result after evaporation ([2]; evaporation at room temperature, THF): Partial or complete salt dissociation
- XRPD Result after evaporation ([2]; evaporation at room temperature, Tetrahydrofuran/Water (1:1), hydrochloride): Partial or complete salt dissociation; also recorded: Form A + Form A1
- XRPD Result after evaporation ([2]; evaporation at room temperature, Water): Form A1
- XRPD Result after recrystallization ([3]; EtOH/0.1N HCl): Form A1
- XRPD Result after recrystallization ([3]; MeCN/H2O, hydrochloride): Form A1 + Form A
- XRPD Result after recrystallization ([3]; MeOH/0.1N HCl): Form A1
- XRPD Result after recrystallization ([3]; THF/H2O, hydrochloride): Complete salt dissociation; also recorded: Form A
- XRPD Result after grinding ([4]; Dry grinding): unchanged
- XRPD Result after grinding ([4]; Wet grinding (paste)): unchanged
- Solid form after humidity exposure ([5]; 40° C./75% RH environment for four weeks): not changed
- XRPD Result after humidity exposure ([5]; 40° C./75% RH for 4 weeks, closed vial): Form A1
- XRPD Result after humidity exposure ([5]; 40° C./75% RH for 4 weeks, open vial): Form A1
- XRPD Result after humidity exposure ([5]; 95% RH at room temperature for 4 days, hydrochloride): not changed; also recorded: Form A1
- stability upon compression [6]: stable

Source: patent US9751853B2, “Solid forms of 3-(5-amino-2-methyl-4-oxo-4H-quinazolin-3-yl)-piperidine-2,6-dione, and their pharmaceutical compositions and uses” (Celgene Corporation, priority 2011, dated 2017)
